Assay results from PubChem BioAssay AID248 (DTP/NCI, 2004).
Several values for one entry are separate records, joined by “and”; a condition that tells them apart may be missing. Equal values may be shown once. Inconclusive results and toxic doses are left out. Cut-off read from the data, not from the text of the source: active = T/C of 150% or more; inactive = T/C below 125%.

Tested on: L1210 leukemia ip in BDF1 mice, survival T/C
Test: NCI In Vivo Anticancer Drug Screen. Data for tumor model L1210 Leukemia (intraperitoneal) in B6D2F1 (BDF1) mice
Settings: endpoint: mean survival time, higher = longer survival
Outline: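 Each compound was tested against a transplantable tumor grown in mice. The endpoint was survival, with treated animals benchmarked against vehicle controls as a simple ratio.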

[1] = dose: 100.0 mg/kg/injection, schedule: Q04DX002 (ip), vehicle: Klucel (hydroxypropylcellulose) (HPC)
[2] = dose: 200.0 mg/kg/injection, schedule: Q04DX002 (ip), vehicle: Klucel (hydroxypropylcellulose) (HPC)
[3] = dose: 50.0 mg/kg/injection, schedule: Q01DX001 (ip), vehicle: carboxymethylcellulose (CMC)
[4] = dose: 100.0 mg/kg/injection, schedule: Q01DX001 (ip), vehicle: carboxymethylcellulose (CMC)
[5] = dose: 200.0 mg/kg/injection, schedule: Q01DX001 (ip), vehicle: carboxymethylcellulose (CMC)
[6] = dose: 100.0 mg/kg/injection, schedule: Q01DX009 (ip), vehicle: saline
[7] = dose: 400.0 mg/kg/injection, schedule: Q01DX001 (ip), vehicle: carboxymethylcellulose (CMC)
[8] = dose: 100.0 mg/kg/injection, schedule: Q01DX001 (ip), vehicle: saline

Measured: T/C

O=C(CCCCCCCC(=O)Nc1cc(C2=NCCN2)cc(C2=NCCN2)c1)Nc1cc(C2=NCCN2)cc(C2=NCCN2)c1
inactive: dose: 12.0 mg/kg/injection, schedule: Q01DX Z (ip), vehicle: carboxymethylcellulose (CMC) 105 % of control

CCOC(=O)CC(=O)c1cccc(S(=O)(=O)F)c1
inactive: dose: 100.0 mg/kg/injection, schedule: Q01DX009 (ip), vehicle: saline with Tween-80 98 % of control | dose: 100.0 mg/kg/injection, schedule: Q04DX003 (ip), vehicle: saline with Tween-80 104 % of control | dose: 200.0 mg/kg/injection, schedule: Q01DX009 (ip), vehicle: saline with Tween-80 103 % of control | dose: 200.0 mg/kg/injection, schedule: Q04DX003 (ip), vehicle: saline with Tween-80 98 % of control | dose: 400.0 mg/kg/injection, schedule: Q01DX009 (ip), vehicle: saline with Tween-80 92 % of control | dose: 400.0 mg/kg/injection, schedule: Q04DX003 (ip), vehicle: saline with Tween-80 102 % of control

O=[N+]([O-])c1cc2ccccc2o1
inactive: dose: 50.0 mg/kg/injection, schedule: Q04DX002 (ip), vehicle: Klucel (hydroxypropylcellulose) (HPC) 88 % of control | [1] 97 % of control | [2] 93 % of control

COc1ccc2c(ccc3ccc4ccccc4c32)c1
inactive: dose: 100.0 mg/kg/injection, schedule: Q01DX001 (ip), vehicle: Klucel (hydroxypropylcellulose) (HPC) 105 % of control | dose: 200.0 mg/kg/injection, schedule: Q01DX001 (ip), vehicle: Klucel (hydroxypropylcellulose) (HPC) 102 % of control | dose: 400.0 mg/kg/injection, schedule: Q01DX001 (ip), vehicle: Klucel (hydroxypropylcellulose) (HPC) 100 % of control

Cc1ccc(NC2=NCCO2)cc1
inactive: [3] 104 % of control | [4] 96 % of control | [5] 98 % of control

CC[n+]1c(C=Nc2ccc(N(C)C)cc2)sc2ccccc21
inactive: dose: 3.13 mg/kg/injection, schedule: Q04DX003 (ip), vehicle: carboxymethylcellulose (CMC) 107 % of control | dose: 6.25 mg/kg/injection, schedule: Q04DX003 (ip), vehicle: carboxymethylcellulose (CMC) 98 % of control | dose: 12.5 mg/kg/injection, schedule: Q04DX002 (ip), vehicle: carboxymethylcellulose (CMC) 104 % of control and 106 % of control | dose: 12.5 mg/kg/injection, schedule: Q04DX003 (ip), vehicle: carboxymethylcellulose (CMC) 96 % of control and 100 % of control | dose: 25.0 mg/kg/injection, schedule: Q04DX002 (ip), vehicle: carboxymethylcellulose (CMC) 109 % of control and 116 % of control

CCN(CC)CCOC(=O)c1ccc(C(Cl)Cl)cc1
inactive: dose: 50.0 mg/kg/injection, schedule: Q01DX009 (ip), vehicle: saline 88 % of control | [6] 88 % of control

Cc1ccc(S(=O)(=O)N(CCC(=O)O)Cc2ccccc2)cc1
inactive: [4] 121 % of control | [5] 103 % of control | [7] 108 % of control

C[AsH](C)CC[AsH](C)C.C[AsH](C)CC[AsH](C)C.C[AsH](C)CC[AsH](C)C.[Ni]
inactive: dose: 25.0 mg/kg/injection, schedule: Q04DX002 (ip), vehicle: saline 103 % of control | dose: 50.0 mg/kg/injection, schedule: Q04DX002 (ip), vehicle: saline 109 % of control

CCCCN(C(=O)CCl)C(C)(C)C(SSC(c1ccc(Cl)cc1)C(C)(C)N(CCCC)C(=O)CCl)c1ccc(Cl)cc1 (centres undefined)
inactive: dose: 12.5 mg/kg/injection, schedule: Q01DX009 (ip), vehicle: Klucel (hydroxypropylcellulose) (HPC) 96 % of control | dose: 25.0 mg/kg/injection, schedule: Q01DX009 (ip), vehicle: Klucel (hydroxypropylcellulose) (HPC) 101 % of control | dose: 50.0 mg/kg/injection, schedule: Q01DX009 (ip), vehicle: Klucel (hydroxypropylcellulose) (HPC) 96 % of control

CCCCC(=O)N/N=C/c1ccc(Cl)cc1Cl
inactive: [8] 91 % of control

CC(=N/NC(N)=S)/C(C)=N/NC(N)=S
inactive: dose: 15.0 mg/kg/injection, schedule: Q01DX Z (ip), vehicle: carboxymethylcellulose (CMC) 97 % of control | dose: 30.0 mg/kg/injection, schedule: Q01DX Z (ip), vehicle: carboxymethylcellulose (CMC) 97 % of control | [3] 95 % of control | dose: 60.0 mg/kg/injection, schedule: Q01DX Z (ip), vehicle: carboxymethylcellulose (CMC) 101 % of control and 91 % of control | [4] 87 % of control | [8] 110 % of control | [6] 91 % of control | dose: 100.0 mg/kg/injection, schedule: Q04DX003 (ip), vehicle: saline 98 % of control | dose: 120.0 mg/kg/injection, schedule: Q01DX Z (ip), vehicle: carboxymethylcellulose (CMC) 95 % of control | [5] 87 % of control | dose: 200.0 mg/kg/injection, schedule: Q01DX001 (ip), vehicle: saline 106 % of control | dose: 200.0 mg/kg/injection, schedule: Q01DX009 (ip), vehicle: saline 88 % of control | dose: 200.0 mg/kg/injection, schedule: Q04DX003 (ip), vehicle: saline 86 % of control | dose: 240.0 mg/kg/injection, schedule: Q01DX Z (ip), vehicle: carboxymethylcellulose (CMC) 93 % of control | dose: 240.0 mg/kg/injection, schedule: Q01DX Z (oral), vehicle: carboxymethylcellulose (CMC) 105 % of control | [7] 89 % of control | dose: 400.0 mg/kg/injection, schedule: Q01DX001 (ip), vehicle: saline 101 % of control | dose: 400.0 mg/kg/injection, schedule: Q01DX009 (ip), vehicle: saline 93 % of control | dose: 400.0 mg/kg/injection, schedule: Q04DX003 (ip), vehicle: saline 91 % of control | dose: 480.0 mg/kg/injection, schedule: Q01DX Z (ip), vehicle: carboxymethylcellulose (CMC) 87 % of control | dose: 480.0 mg/kg/injection, schedule: Q01DX Z (oral), vehicle: carboxymethylcellulose (CMC) 102 % of control | dose: 960.0 mg/kg/injection, schedule: Q01DX Z (oral), vehicle: carboxymethylcellulose (CMC) 102 % of control | dose: 1920.0 mg/kg/injection, schedule: Q01DX Z (oral), vehicle: carboxymethylcellulose (CMC) 111 % of control

CC1CCC2(OC1)OC1C(O)C3C4CCC5CC(OC6OC(CO)C(OC7OC(CO)C(O)C(OC8OCC(O)C(O)C8O)C7OC7OC(CO)C(O)C(OC8OC(CO)C(O)C(O)C8O)C7O)C(O)C6O)C(O)CC5(C)C4CCC3(C)C1C2C (centres undefined)
inactive: dose: 25.0 mg/kg/injection, schedule: Q01DX001 (ip), vehicle: saline with Tween-80 93 % of control

CCN(C(=O)c1ccccc1Cl)C(c1ccco1)P(=O)(c1ccccc1)c1ccccc1 (centres undefined)
inactive: dose: 100.0 mg/kg/injection, schedule: Q04DX002 (ip), vehicle: saline with Tween-80 93 % of control | dose: 200.0 mg/kg/injection, schedule: Q04DX002 (ip), vehicle: saline with Tween-80 86 % of control | dose: 400.0 mg/kg/injection, schedule: Q04DX002 (ip), vehicle: saline with Tween-80 117 % of control

N#CSc1ncnc2nc[nH]c12
inactive: dose: 3.5 mg/kg/injection, schedule: Q01DX Z (ip), vehicle: water 104 % of control | dose: 5.3 mg/kg/injection, schedule: Q01DX Z (ip), vehicle: water 104 % of control | dose: 6.0 mg/kg/injection, schedule: Q01DX Z (ip), vehicle: water 105 % of control | dose: 8.0 mg/kg/injection, schedule: Q01DX Z (ip), vehicle: water 107 % of control | dose: 8.8 mg/kg/injection, schedule: Q01DX Z (ip), vehicle: water 114 % of control | dose: 12.0 mg/kg/injection, schedule: Q01DX Z (ip), vehicle: water 105 % of control | dose: 13.3 mg/kg/injection, schedule: Q01DX Z (ip), vehicle: water 108 % of control | dose: 20.0 mg/kg/injection, schedule: Q01DX Z (ip), vehicle: water 122 % of control

OCC1OC(n2ccc3c(N4CCCCC4)ncnc32)C(O)C1O (centres undefined)
inactive: [3] 93 % of control | [4] 95 % of control | [5] 98 % of control | [7] 93 % of control

c1ccc(-c2c3ccccc3c(-c3ccccc3)c3c(-c4ccccc4)c4ccccc4c(-c4ccccc4)c23)cc1
inactive: [1] 95 % of control | [2] 98 % of control | dose: 400.0 mg/kg/injection, schedule: Q04DX002 (ip), vehicle: Klucel (hydroxypropylcellulose) (HPC) 109 % of control
